Patent US20170261507A1, “Methods for Predicting and Monitoring Cancer Patients' Response to Teatment by Measuring Myeloid Derived Suppressor Cells (MDSCs)” (YISSUM RESEARCH DEVELOPMENT COMPANY OF THE HEBREW …, priority 2014, published 2017)

Columns and labels:
cleaved caspase-3 [1] = experiment: Cleaved caspase-3 in splenic MDSCs of treated CRC-mice; assay type: in vivo, mouse
Description: Cleaved caspase-3 staining was performed using primary Rabbit anti-cleaved caspase-3 (Cell Signaling Technology, Asp175) and secondary FITC-horse anti-Rabbit antibody (Thermo Scientific).
Therefore, Splenic MDSCs from each group were analyzed for the expression of activated (cleaved) caspase-3 by flow cytometry analysis. […] Cleaved caspase-3 levels were then evaluated on the primary MDSCs, differentiated CD11c^+CD11b^+DCs and F4/80^+CD11b^+ macrophages.

T-cells [2] = experiment: BCG chronic inflammation mouse model: T-cell proliferation; assay type: in vivo; details: splenocytes of inflamed mice
Description: (§1) Mice were injected intraperitoneally with 10 mg/kg body weight of Azoxymethan (AOM, purchased from Sigma-Aldrich (St. Louis, Mo., USA)) dissolved in physiological saline twice in two weeks intervals. Two weeks later, 2% dextran sulfate sodium (DSS, purchased from MP biochemicals Inc. (Santa Ana, Calif., USA)) was given in the drinking water over 7 days, followed by 14 days of regular water (15). This cycle was repeated twice. Animals were sacrificed and analyzed three weeks after the last treatment. To induce a pathology-free chronic inflammation, a previously described protocol subjecting mice to heat-killed Mycobacterium […] (BCG) treatment (16) was used.
Splenocytes or purified T-cells isolated by a magnetic column separation system (Miltenyi Biotec) were labeled with […] CFSE (Invitrogen) and subjected to TCR-mediated activation as previously described (16).
(§2) Next, it was assessed whether the 5FU and CPT11 opposite effects on MDSCs have different impacts on the host's immune competence. […] Since NK-cell activity is mediated via natural cytotoxicity receptors (NCRs), which associate with and depend on CD247, NK-cell in vivo function was assessed by monitoring the clearance of adoptively transferred allogeneic cells.

Gr1^+CD11b^+ MDSCs = experiment: MDSC accumulation in colon, spleen and PBLs of CRC-mice; assay type: in vivo, mouse
CD247 [3] = experiment: BCG chronic inflammation mouse model: CD247 expression in T-cells; assay type: in vivo; details: spleen and PBLs of inflamed mice
Description: as §1, §2

CD247 [4] = experiment: CD247 expression in T-cells of CRC-mice; assay type: in vivo, mouse; details: splenocytes of CRC-mice
Description: (§3) Next, the effect of the given chemotherapies on the immune status was evaluated. This was performed by testing the function of the whole T-cell population (FIG. 9J) as well as the CD8^+ T-cells (FIG. 9K) in all experimental groups along with measurements of the expression levels of CD247 in CD3^+ (FIG. 9L) and in CD8^+ T-cells (FIG. 9M). T-cell proliferative response was assessed by monitoring cell divisions of gated CFSE-labeled Thy1.2^+ (CD90^+) T-cells upon TCR-CD28 mediated activation.

cleaved caspase-3 [5] = experiment: BCG chronic inflammation mouse model: cleaved caspase-3 in MDSCs; assay type: in vivo; details: compared to inflamed-untreated mice
S100A8/9 = details: MDSCs from spleen of CRC-mice
Description: Cells isolated from the spleen or colon were analyzed by Western blotting for the expression of various proteins as previously described (16). The antibodies used for immunoblotting were: anti-S100A9, anti-S100A8, and anti-αTubulin. Specific antibodies were detected by anti-rabbit or anti-goat antibodies conjugated to horseradish peroxidase (Jackson Immunoresearch), followed by enhanced chemiluminescence and exposure at blotting reader (Bio-Rad software).
(§5) For that purpose the expression of the S100A8/9 pro-inflammatory proteins was assessed.

MDSCs [6] = experiment: Myeloid cell differentiation in vivo in CRC-mice
Description: Isolated mouse splenocytes and peripheral blood lymphocytes (PBLs) were subjected to cell surface staining as previously described (16), using the following antibodies (Biolegend): FITC-labeled anti-Gr1, and anti-CD11c; PE-labeled anti-F4/80, anti-CD3s, and anti-mNKp46; and biotinylated anti-CD11b detected with streptavidin-Cy5. Intracellular staining for CD247 was performed as previously described (16) by using FITC-labeled anti-CD247 or biotinylated anti-CD247 (lone H146), the latter detected with streptavidin-Cy5. Foxp3 staining was performed according to the manufacturer's instructions (Miltenyi Biotec). Cleaved caspase-3 staining was performed using primary Rabbit anti-cleaved caspase-3 (Cell Signaling Technology, Asp175) and secondary FITC-horse anti-Rabbit antibody (Thermo Scientific).
as §5

T-cells [7] = experiment: CFSE T-cell proliferation assay, splenocytes of CRC-mice; assay type: in vivo, mouse; details: CFSE-labeled Thy1.2^+ T-cells, TCR-CD28 mediated activation, vs untreated CRC-mice
Description: as §3, with “Splenocytes or purified T-cells isolated by a magnetic column separation system (Miltenyi Biotec) were labeled with […] CFSE (Invitrogen) and subjected to TCR-mediated activation as previously described (16). Next,” for “Next,”

NK-cells = experiment: BCG chronic inflammation mouse model: NK-cell mediated clearance of allogeneic cells; assay type: in vivo; details: spleen and PBLs of inflamed mice
[8] = test system: MDSCs isolated from spleens of CRC-mice; experiment: NO^− and ROS production in ex vivo cultured MDSCs; assay type: cell-based, mouse; details: 2.5 μmol/L, 24 h
MDSCs [9] = experiment: NO^− and ROS production by MDSCs of treated CRC-mice (flow cytometry); assay type: in vivo, mouse
Description: Three weeks after the second DSS treatment mice were sacrificed and spleens were analyzed.

MDSCs [10] = experiment: BCG chronic inflammation mouse model: ROS and NO^− production by MDSCs; assay type: in vivo; details: splenic MDSCs, compared to inflamed-untreated mice
Description: as §1
(§4) Next, the immunoregulatory effects of 5FU and CPT11 were examined in a mouse model for chronic inflammation and associated immunosuppression (10), as described in the materials and method section above and in FIG. 13A. This experiment was performed in order to investigate whether the differential effects of the drugs are related to the presence of the tumor. Briefly, the mouse model for chronic inflammation was established by three repeated injections of heat-killed BCG bacteria. A day after the second BCG injection, mice were treated twice a week with 5FU, CPT11 or a 5FU/CPT11 combination. […] No changes in CD4^+Foxp3^+ Tregs percentage were detected (FIG. 13H), confirming that these chemotherapies specifically affect MDSCs.

[11] = test system: MDSCs isolated from spleens of CRC mice; experiment: Cleaved caspase-3 in ex vivo cultured MDSCs, DCs and macrophages; assay type: cell-based, mouse
MDSC = details: mice, reference (11); cited from earlier work
CD247 [12] = experiment: BCG chronic inflammation mouse model: CD247 expression in NK-cells; assay type: in vivo; details: chronically inflamed mice
Description: as §1, §2

TNFα, S100A9 = experiment: TNFα and S100A9 mRNA in ex vivo cultured MDSCs (Real Time PCR); assay type: cell-based, mouse; details: 3 days
MDSCs [13] = experiment: BCG chronic inflammation mouse model: MDSC levels; assay type: in vivo; details: PBLs and spleen, compared to inflamed-untreated mice
Description: as §1, §4

CRC-derived MDSC = experiment: Ex vivo GM-CSF mediated myeloid-cell differentiation; assay type: cell-based, mouse; details: 10 ng/ml GM-CSF, 72 h, vs GM-CSF only

O=c1[nH]cc(F)c(=O)[nH]1 [5FU, 5-fluoruracil]
cleaved caspase-3 expression in spleen MDSCs (cleaved caspase-3 [1]): significant increased cleaved caspase-3 expression
T-cell proliferation (T-cells [2]): significant recovery
MDSC numbers / infiltration in colon (Gr1^+CD11b^+ MDSCs; lamina propria and epithelium, flow cytometry, vs untreated CRC-mice): significantly reduced MDSC infiltration
MDSC numbers in spleens (Gr1^+CD11b^+ MDSCs; vs untreated, CPT11 or 5FU/CPT11 treated CRC-mice): significantly decreased MDSC numbers
CD247 expression in T-cells (CD247 [3]): significant recovery of CD247 expression
CD247 expression levels in T-cells (CD247 [4]): elevated levels
cleaved caspase-3 levels (cleaved caspase-3 [5]): elevated cleaved caspase-3 levels
S100A8/9 mRNA and protein levels (S100A8/9): significant decrease in S100A8/9 mRNA and protein levels
matured antigen presenting cells (CD80 and MHCII expression) (MDSCs [6]): induced CD80 and MHCII expression
myeloid cell differentiation in vivo (DCs and macrophages) (MDSCs [6]): significant shift towards differentiated DCs and macrophages
T-cell proliferative ability (T-cells [7]): did not affect T-cell proliferation
NK-cell activity (clearance of adoptively transferred allogeneic cells) (NK-cells): complete recovery of NK-cell activity
NO^− or ROS production in purified cultured MDSCs [8]: did not alter NO^− or ROS production
NO^− production (MDSCs [9]; lamina propria and epithelial MDSCs, vs untreated CRC mice): significant reduction of NO^− production
NO^− and ROS production (MDSCs [9]; splenic MDSCs, compared to untreated CRC-mice): significantly reduced NO^− and ROS production
ROS and NO^− production (MDSCs [10]): significantly reduced
5FU-induced apoptosis (cleaved caspase-3), DCs and macrophages ([11]; ex vivo, 10 ng/ml GM-CSF, 0, 1.25, 2.5, and 5, 3 days): insensitive
5FU-induced apoptosis (cleaved caspase-3), primary MDSCs ([11]; ex vivo, 10 ng/ml GM-CSF, 0, 1.25, 2.5, and 5 mol/L, 3 days): evident only in non-differentiated MDSCs
cleaved caspase-3 expression (MFI) in monocytic and granulocytic MDSCs ([11]; ex vivo, 2.5, 3 days, monocytic population more sensitive): enhanced cleaved caspase-3 expression
cleaved caspase-3 in purified cultured MDSCs ([11]; ex vivo, various doses, 3 days, dose-dependent): cleaved caspase-3 up-regulation
MDSC apoptosis and tumor regression (MDSC): selective MDSC apoptosis and tumor regression
tumor load within the colon (hematoxylin-eosin histopathology) (CRC-mice; monotherapy for three weeks, vs untreated CRC mice): decreased tumor load and recovery of colon architecture
histopathological analysis of colon sections (hematoxylin-eosin) (CRC-mice; three weeks after second DSS treatment): only few aberrant crypt foci and tumors
CD247 expression in NK-cells (CD247 [12]): almost completely recovered
mRNA levels of TNFα and S100A9 (TNFα, S100A9): decreased levels of these factors
MDSC levels (MDSCs [13]): significantly reduced MDSC levels
GM-CSF mediated CRC-derived MDSC differentiation (CRC-derived MDSC): enabled MDSC differentiation to DCs and macrophages
